Measurements from patent US12357623B2, “Method for treating a disease or condition using a pyrazole compound or formulation thereof” (Rigel Pharmaceuticals, Inc., priority 2021, dated 2025).
Structures can show the parent of a compound that is named as a salt.

What was measured:
[1] = Physical and chemical stability of salts of compound I-18; format: physicochemical; conditions: for Area (%) of peak at RRT 1.00: main peak; for Area (%) of peak at RRT 1.17: peak corresponds to I-1 formed by hydrolysis; for Initial purity: before storage
Protocol: The physical and chemical stability of the K salt, Arginine salt, Choline salt and Tris salt were evaluated under conditions of 25° C./60% RH and 40° C./75% RH for 1 week. Each sample was added into 3 mL glass vials, sealed by parafilm with several holes, and kept under tested condition. After one week, samples was taken for XRPD and HPLC purity test.

[2] = Hygroscopicity evaluation (DVS) of salts of compound I-18; format: physicochemical; conditions: 25° C.
Protocol: To investigate the solid form stability as a function of humidity, DVS isotherm plot of the K salt, Arginine salt, Choline salt and Tris salt were collected at 25° C. between 0 and 95% RH.

[3] = 25° C./60% RH, 1 week, listed as tris salt
[4] = 40° C./75% RH, 1 week, listed as tris salt
[5] = 25° C./60% RH, 1 week, listed as potassium salt
[6] = 40° C./75% RH, 1 week, listed as potassium salt
[7] = Initial, listed as potassium salt

## CCO[C@H]1CC[C@H](n2cc(NC(=O)c3csc(-c4cnn(C(C)OP(=O)(O)O)c4)n3)c(-c3nc(F)ccc3F)n2)CC1 (stereo partly shown) [Compound I-49, 1-(4-(4-((3-(3,6-difluoropyridin-2-yl)-1-((1r, 4r)-4-ethoxycyclohexyl)-1H-pyrazol-4-yl)carbamoyl)thiazol-2-yl)-1H-pyrazol-1-yl)ethyl dihydrogen phosphate tris salt]
[1]; 25° C./60% RH, 1 week
  Area (%) of peak at RRT 1.13: 0.06%
[1]; [3]
  Area (%) of peak at RRT 0.77: <0.03%
  Area (%) of peak at RRT 1.45: 0.35%
  Area (%) of peak at RRT 1.71: 0.80%
  Area (%) of peak at RRT 1.73: 0.55%
  HPLC purity change: no HPLC purity decrease
  Area (%) of peak at RRT 1.00: 96.61%
  Area (%) of peak at RRT 1.17: 1.63%
[1]; 25° C./60% RH/1 week, listed as Tris salt
  Form change (XRPD): no form change and No
[1]; [4]
  Area (%) of peak at RRT 0.77: 0.03%
  Area (%) of peak at RRT 1.45: 0.47%
  Area (%) of peak at RRT 1.71: 0.88%
  Area (%) of peak at RRT 1.73: 0.84%
  HPLC purity change: a purity decrease was observed
  Area (%) of peak at RRT 1.00: 95.03%
  Area (%) of peak at RRT 1.17: 2.69%
[1]; 40° C./75% RH/1 week, listed as Tris salt
  Form change (XRPD): no form change and No
[1]; Initial, listed as tris salt
  Area (%) of peak at RRT 0.77: <0.03%
  Area (%) of peak at RRT 1.13: 0.07%
  Area (%) of peak at RRT 1.45: 0.37%
  Area (%) of peak at RRT 1.71: 0.86%
  Area (%) of peak at RRT 1.73: 0.76%
  Area (%) of peak at RRT 1.00: 96.06%
  Area (%) of peak at RRT 1.17: 1.87%
[1]; listed as Tris salt
  Initial purity: 96.06 area %
[2]; at 70% RH, listed as Tris salt
  water uptake (DVS): 6.06%
[2]; at 95% RH, listed as Tris salt
  water uptake (DVS): 39.5%

## CCO[C@H]1CC[C@H](n2cc(NC(=O)c3csc(-c4cnn(C(C)OP(=O)(O)O)c4)n3)c(-c3nc(F)ccc3F)n2)CC1 (stereo partly shown) [Compound I-108, potassium 1-(4-(4-((3-(3,6-difluoropyridin-2-yl)-1-((1r, 4r)-4-ethoxycyclohexyl)-1H-pyrazol-4-yl)carbamoyl)thiazol-2-yl)-1H-pyrazol-1-yl)ethyl hydrogen phosphate]
[1]; 25° C./60% RH, 1 week
  Area (%) of peak at RRT 1.14: <0.04%
  Area (%) of peak at RRT 1.40: 0.25%
  Area (%) of peak at RRT 1.44: 0.30%
  Area (%) of peak at RRT 1.70: 0.27%
  Area (%) of peak at RRT 1.72: 0.78%
  Area (%) of peak at RRT 1.81: <0.04%
[1]; 25° C./60% RH, 1 week, listed as K salt
  HPLC purity change: slight purity decrease
[1]; [5]
  Area (%) of peak at RRT 1.00: 96.26%
  Area (%) of peak at RRT 1.17: 2.14%
[1]; 25° C./60% RH/1 week, listed as K salt
  Form change (XRPD): no form change and No
[1]; 40° C./75% RH, 1 week
  Area (%) of peak at RRT 1.14: 0.05%
  Area (%) of peak at RRT 1.40: 0.39%
  Area (%) of peak at RRT 1.44: 0.24%
  Area (%) of peak at RRT 1.70: 0.24%
  Area (%) of peak at RRT 1.72: 0.83%
  Area (%) of peak at RRT 1.81: 0.04%
[1]; 40° C./75% RH, 1 week, listed as K salt
  HPLC purity change: slight purity decrease
[1]; [6]
  Area (%) of peak at RRT 1.00: 96.40%
  Area (%) of peak at RRT 1.17: 1.80%
[1]; 40° C./75% RH/1 week, listed as K salt
  Form change (XRPD): a form change was observed and Yes
[1]; Initial
  Area (%) of peak at RRT 1.14: <0.04%
  Area (%) of peak at RRT 1.40: 0.23%
  Area (%) of peak at RRT 1.44: 0.21%
  Area (%) of peak at RRT 1.70: 0.18%
  Area (%) of peak at RRT 1.72: 0.77%
  Area (%) of peak at RRT 1.81: <0.04%
[1]; [7]
  Area (%) of peak at RRT 1.00: 97.27%
  Area (%) of peak at RRT 1.17: 1.33%
[1]; listed as K salt
  Initial purity: 97.27 area %
[2]; at 70% RH, listed as K salt
  water uptake (DVS): 0.42%
[2]; at 95% RH, listed as K salt
  water uptake (DVS): 16.5%
